Experimental data taken from patent publication US10399931B2, “Octahydroanthracene compound, preparation method and application thereof” (SHANDONG XINHUA PHARMACEUTICAL CO., LTD., priority 2016, dated 2019).

What was measured:
[1] = tested on: Human cutaneous T-cell lymphoma Hut102 cells; test: MTT assay, proliferation of human cutaneous T-cell lymphoma Hut102 cells; format: cell-based; details: HuT-102, 10 μM, Mean ± SE, read-out: Inhibitive rate (%) against Hut102 cells
Method: The survival rate of cells was determined by MTT assay, which is based on the metabolic reduction of 3-(4,5-dimethyl-2thiahiazoyl)-3,5-di-phenyl-tetrazolium bromide (MTT) by viable cells. MTT is a yellow compound, a dye that accepts hydrogen ion, which can act on the respiratory chain in the mitochondria of viable cells. Under the action of succinate dehydrogenase and cytochrome C, the tetrazolium ring was cleaved to form blue Formazan crystals, and the amount of Formazan crystals generated was only proportional to the number of the viable cells. The enzymes disappeared in dead cells, so Formazan crystals could not be dissolved in MTT solution containing 20% sodium dodecyl sulfate (pH 4.7).
The cells in the logarithmic growth phase were selected and adjusted to an appropriate cell density, seeded in a 96-well plate, 100 μl/well, and cultured in a 37° C., 5% CO2 incubator. The cells were allowed to adhere overnight, then the culture medium was replaced and the drug was added to cultivate for 48 h. A blank control group, a drug administration group and a positive control group were set, with four repeats in each group.
After 48 h of drug treatment, the cells were incubated with 0.25 mg/ml MTT at 37° C. for 3-4 h, and 100 μl of dimethyl sulfoxide (DMSO) was added to each well after aspirating the culture solution.

tau protein = test: Tau protein phosphorylation; design: species or system mice; details: mouse, in vivo
APP/PS1 transgenic mice [2] = test: Social interaction experiment; format: in vivo; details: 200 mg/kg
Method: The social interaction device was composed of a square box (length×width×height: 50 cm×50 cm×15 cm). The behavioral laboratory used diffuse and dim light (25 W) and tried to avoid environmental stress caused by shadows in the experimental area. Before the social interaction experiment, in order to eliminate the influence of unfamiliar environment, each mouse was placed in the experimental device alone to adapt to the environment, 10 min each day for two consecutive days. At the beginning of the test on day 3, the mouse was randomly paired with another strange partner. Two groups of experimental animals were placed in the experimental device at the same time, and the time spent by the mice in the active social interaction behavior was recorded. The test time was 10 min, including sniffing, combing, and scratching or chasing each other. However, passive contact activities (overwhelmed or being ridden by the other mouse, etc.) are not recorded in the social interaction behavior. After each test, 1% bromo geramine was used to disinfect the social interaction device.

APP/PS1 transgenic mice [3] = test: Nesting experiment; format: in vivo
From the text: Each mouse was separately housed in a cage. On the first day of the test, two pieces of cotton (5 cm×5 cm) were placed in the cage. […]

SYP, PSD95 and GAP43 = test: Western blot of synaptic-related proteins in APP/PS1 mice; format: in vivo
Method: After the behavioral experiment, the animals were anesthetized with an intraperitoneal injection of 3.5% chloral hydrate and cut off the heads quickly to take out the brains. The hippocampus and cortex of the brain were separated on ice, and then weighed and quickly frozen with liquid nitrogen, placed in a refrigerator at −80° C. for standby application.
The tissue lysate (5 μL PMSF protease inhibitor per mL of lysate) was added to the frozen brain tissue at a ratio of […] (6 mL/g tissue), and ultrasonically homogenized in an ice bath. After homogenization, the tissue homogenate was placed in crushed ice for 30 min, and then centrifuged at 12,000×g for 20 min at 4° C. The supernatant (about 200 μL) was taken and stored in a refrigerator at −80° C. for later use. A portion of the supernatant was taken for protein quantification.
According to the kit instruction, BCA working reagent was prepared by mixing reagent A with reagent B at a ratio of 50:1 thoroughly. The BCA working reagent was freshly prepared for use at room temperature with a stable period of 24 h. […] (5) The absorbance of the protein (at a wavelength of 540 nm) was determined by a microplate reader. (6) The standard curve was made by Excel, and the concentration of the detected protein was calculated based on the standard curve. […]

CC1(C)CCC(C)(C)c2c1cc1c(c2NC(=O)c2ccc(NC(=O)NCCN)cc2)C(C)(C)CCC1(C)C [OAB-14, 1-(2-amino) ethyl-3-{4-[(1,1,4,4,5,5,8,8-octamethyl-1,2,3,4,5,6,7,8-octahydro-9-anthryl)carbamoyl]phenyl} urea]
inhibition at 10 µM [1]: 41.2 ± 1.08% | Tau protein phosphorylation (tau protein): reducing the tau protein phosphorylation | Active contact time vs model group (APP/PS1 transgenic mice [2]): significantly increased | Nesting ability vs model group (APP/PS1 transgenic mice [3]; 100 mg/kg, at 12 h): significantly increased | Nesting ability vs model group (APP/PS1 transgenic mice [3]; 200 mg/kg, at 6 h): significantly increased | Nesting ability vs model group (APP/PS1 transgenic mice [3]; 200 mg/kg, at 12 h): significantly increased | Nesting ability vs model group (APP/PS1 transgenic mice [3]; 200 mg/kg, at 24 h): significantly increased | Expression of synaptic-related proteins SYP, PSD95 and GAP43 (SYP, PSD95 and GAP43; 100 mg/kg group): significantly increased | Expression of synaptic-related proteins SYP, PSD95 and GAP43 (SYP, PSD95 and GAP43; 200 mg/kg group): significantly increased
